How the values were obtained:
Type in all cases: in vivo
corn (Zea mays) = assay: Test F pre-/postemergence: corn
Source text: (§1) Seeds of plant species selected from corn (Zea mays), soybean (Glycine max), velvetleaf (Abutilon theophrasti), lambsquarters (Chenopodium album), poinsettia, wild (wild poinsettia, Euphorbia heterophylla), pigweed, palmer (palmer pigweed, Amaranthus palmeri), waterhemp (common waterhemp, Amaranthus rudis), surinam grass (Brachiaria decumbens), crabgrass, Brazil (Brazilian crabgrass, Digitaria horizontalis), panicum, fall (fall panicum Panicum dichotomiflorum), crabgrass, large (large crabgrass, Digitaria sanguinalis), foxtail, giant (giant foxtail, Setaria faberii), foxtail, green (green foxtail Setaria viridis), goosegrass (Eleusine indica), ragweed (common ragweed, Ambrosia elatior), barnyardgrass (Echinochloa crus-galli), sandbur (southern sandbur, Cenchrus echinatus), arrowleaf sida (Sida rhombifolia), ryegrass, Italian (Italian ryegrass, Lolium multiflorum), dayflower, VA (Virginia (VA) dayflower, Commelina virginica), field bindweed (Convolvulus arvensis), cocklebur (common cocklebur, Xanthium strumarium), morningglory (Ipomoea coccinea), nightshade (eastern black nightshade, Solanum ptycanthum), kochia (Kochia scoparia), nutsedge, yellow (yellow nutsedge, Cyperus esculentus), johnsongrass (Sorghum halepense), smartweed (ladysthumb smartweed, Polygonum persicaria), and beggarticks (hairy beggarticks, Bidens pilosa), were planted into a silt loam soil and treated preemergence with test chemicals formulated in a non-phytotoxic solvent mixture which included a surfactant. At the same time, plants selected from these crop and weed species and also pigweed (Amaranthus retroflexus), waterhemp_RES1 (ALS/Triazine resistant common waterhemp, Amaranthus rudis) and waterhemp_RES2 (ALS/HPPD resistant common waterhemp, Amaranthus rudis) were planted in pots containing a planting medium comprising spaghnum peat moss, vermiculite, wetting agent and starter nutrients treated with postemergence applications of some of the test chemicals formulated in the same manner. Plants ranged in height from 2 to 18 cm for postemergence treatments (1- to 4-leaf stage).
(§2) Treated plants and controls were maintained in a greenhouse for 14 to 21 days, after which time all species were compared to controls and visually evaluated. Plant response ratings, summarized in Table E, are based on a scale of 0 to 100 where 0 is no effect and 100 is complete control. A dash (-) response means no test result.

[1] = tested on: lambsquarters (Chenopodium album); assay: Test F pre-/postemergence: lambsquarters; conditions: Preemergence
Source text: as §1, §2

[2] = tested on: waterhemp (common waterhemp, Amaranthus rudis); assay: Test F pre-/postemergence: waterhemp
In short: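 Seeds were sown in silt loam soil and sprayed preemergence with test chemical in a non-phytotoxic solvent mixture containing surfactant; postemergence treatments went onto plants 2 to 18 cm tall (1- to 4-leaf stage) grown in peat moss/vermiculite medium. After 14 to 21 days in a greenhouse, injury was rated visually against controls, 0 (no effect) to 100 (complete control).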

[3] = tested on: surinam grass (Brachiaria decumbens); assay: Test F pre-/postemergence: surinam grass; conditions: Preemergence
Source text: as §1, §2

[4] = tested on: panicum, fall (fall panicum Panicum dichotomiflorum); assay: Test F pre-/postemergence: panicum, fall
Source text: as §1, §2

[5] = tested on: johnsongrass (Sorghum halepense); assay: Test F pre-/postemergence: johnsongrass; conditions: Preemergence
Source text: as §1, §2

[6] = Postemergence, 250 g ai/ha, scale 0 to 100
[7] = Postemergence, 31 g ai/ha, scale 0 to 100
[8] = Postemergence, 125 g ai/ha, scale 0 to 100
[9] = Preemergence, 31 g ai/ha, scale 0 to 100, 0 no effect, 100 complete control
[10] = Preemergence, 125 g ai/ha, scale 0 to 100
[11] = Preemergence, 250 g ai/ha, scale 0 to 100
[12] = 31 g ai/ha, scale 0 to 100, 0 no effect, 100 complete control

CCCc1nn(-c2ccc(F)c(F)c2)nc1Oc1ccnc(C(F)(F)F)c1 [Compound 172]
Plant response rating, Corn (corn (Zea mays); [6]): 30 | Plant response rating, Corn (corn (Zea mays); [7]): 15 | Plant response rating, Corn (corn (Zea mays); [8]): 20 | Plant response rating, Corn (corn (Zea mays); [9]): 0 | Plant response rating, Corn (corn (Zea mays); [10]): 15 | Plant response rating, Corn (corn (Zea mays); [11]): 15 | Plant response rating, Lambsquarters [1, 12]: 50 | Plant response rating, Lambsquarters ([1]; 125 g ai/ha, scale 0 to 100): 98 | Plant response rating, Lambsquarters ([1]; 250 g ai/ha, scale 0 to 100): 98 | Plant response rating, Waterhemp [2, 6]: 100 | Plant response rating, Waterhemp [2, 7]: 95 | Plant response rating, Waterhemp [2, 8]: 100 | Plant response rating, Waterhemp [2, 9]: 98 | Plant response rating, Waterhemp [2, 10]: 100 | Plant response rating, Waterhemp [2, 11]: 100 | Plant response rating, Surinam Grass [3, 12]: 20 | Plant response rating, Surinam Grass ([3]; 125 g ai/ha, scale 0 to 100): 35 | Plant response rating, Surinam Grass ([3]; 250 g ai/ha, scale 0 to 100): 98 | Plant response rating, Panicum, Fall [4, 6]: 50 | Plant response rating, Panicum, Fall [4, 7]: 20 | Plant response rating, Panicum, Fall [4, 8]: 50 | Plant response rating, Panicum, Fall [4, 9]: 75 | Plant response rating, Panicum, Fall [4, 10]: 100 | Plant response rating, Panicum, Fall [4, 11]: 100 | Plant response rating, Johnsongrass [5, 12]: 50 | Plant response rating, Johnsongrass ([5]; 125 g ai/ha, scale 0 to 100): 75 | Plant response rating, Johnsongrass ([5]; 250 g ai/ha, scale 0 to 100): 100
